Measurements published in PMC11062894, “Protein-based bandpass filters for controlling cellular signaling with chemical inputs” (Nature Chemical Biology, 2023).
“And” between values parts separate entries of the source, which are not always exact repeats. Equal entries are not always repeated.

System: GEMS receptors with CBPvene (Bcl2–LD3 and Bcl2high variants), STAT3-driven SEAP in HEK293T cells
Experiment: GEMS SEAP reporter assay, CBPvene (Bcl2high, LD3-v and Bcl2-v variants) with venetoclax
Format: cell-based
[1] = CBPVene-v4, Venetoclax 10000 nM
[2] = CBPVene-v4-Bcl2v2, Venetoclax 1 nM
[3] = CBPVene-v4-Bcl2v2, Venetoclax 3.16 nM
[4] = CBPVene-v4-Bcl2v2, Venetoclax 10 nM
[5] = CBPVene-v4-Bcl2v2, Venetoclax 31.6 nM
[6] = CBPVene-v4-Bcl2v2, Venetoclax 100 nM
[7] = CBPVene-v4-Bcl2v2, Venetoclax 316 nM
[8] = CBPVene-v4-Bcl2v2, Venetoclax 1000 nM
[9] = CBPVene-v4-Bcl2v2, Venetoclax 3160 nM
[10] = CBPVene-v4-Bcl2v2, Venetoclax 10000 nM
[11] = CBPVene-v4-LD3v1, Venetoclax 1 nM
[12] = CBPVene-v4-LD3v1, Venetoclax 3.16 nM

## CC1(C)CCC(CN2CCN(c3ccc(C(=O)NS(=O)(=O)c4ccc(NCC5CCOCC5)c([N+](=O)[O-])c4)c(Oc4cnc5[nH]ccc5c4)c3)CC2)=C(c2ccc(Cl)cc2)C1 [Venetoclax]
CBPVene-v4, Venetoclax 0.01 nM
  Raw data of Independent repeat of CBPVene-v4 vs CBPVene-v4-LD3v1: 35.2999 and 34.8178 and 35.7656
CBPVene-v4, Venetoclax 1 nM
  Normalized data Figure 5c: 4.2459 and 4.713 and 4.374
  Normalized data Figure 5f: 3.9625 and 4.391 and 3.175
  Raw data Figure 5c: 40.3634 and 39.0365 and 35.7348
  Raw data Figure 5f: 25.8055 and 26.2397 and 18.4029
  Raw data of Independent repeat of CBPVene-v4 vs CBPVene-v4-LD3v1: 38.7674 and 35.097 and 34.871
CBPVene-v4, Venetoclax 3.16 nM
  Normalized data Figure 5c: 3.941 and 4.809 and 4.361
  Normalized data Figure 5f: 3.622 and 4.227 and 3.164
  Raw data Figure 5c: 37.466 and 39.8351 and 35.629
  Raw data Figure 5f: 23.589 and 25.2624 and 18.3382
  Raw data of Independent repeat of CBPVene-v4 vs CBPVene-v4-LD3v1: 37.9892 and 34.5814 and 35.8384
CBPVene-v4, Venetoclax 10 nM
  Normalized data Figure 5c: 8.251 and 9.2534 and 8.61
  Normalized data Figure 5f: 5.138 and 5.367 and 4.508
  Raw data Figure 5c: 78.4344 and 76.6512 and 70.3479
  Raw data Figure 5f: 33.4586 and 32.0727 and 26.1315
  Raw data of Independent repeat of CBPVene-v4 vs CBPVene-v4-LD3v1: 40.747 and 40.7067 and 37.4113
CBPVene-v4, Venetoclax 31.6 nM
  Normalized data Figure 5c: 23.4087 and 23.5513 and 23.3621
  Normalized data Figure 5f: 15.4727 and 18.6639 and 9.968
  Raw data Figure 5c: 222.533 and 195.089 and 190.881
  Raw data Figure 5f: 100.765 and 111.541 and 57.7785
  Raw data of Independent repeat of CBPVene-v4 vs CBPVene-v4-LD3v1: 75.7769 and 63.5945 and 72.9306
CBPVene-v4, Venetoclax 100 nM
  Normalized data Figure 5c: 64.2766 and 73.1224 and 63.32
  Normalized data Figure 5f: 42.576 and 45.1446 and 47.2654
  Raw data Figure 5c: 611.042 and 605.715 and 517.36
  Raw data Figure 5f: 277.273 and 269.798 and 273.956
  Raw data of Independent repeat of CBPVene-v4 vs CBPVene-v4-LD3v1: 129.31 and 117.373 and 126.839
CBPVene-v4, Venetoclax 316 nM
  Normalized data Figure 5c: 100
  Normalized data Figure 5f: 68.7371 and 83.2998 and 76.2167
  Raw data Figure 5c: 950.644 and 828.357 and 817.055
  Raw data Figure 5f: 447.645 and 497.825 and 441.762
  Raw data of Independent repeat of CBPVene-v4 vs CBPVene-v4-LD3v1: 169.324 and 158.179 and 180.661
CBPVene-v4, Venetoclax 1000 nM
  Normalized data Figure 5c: 99.3535 and 99.2484 and 89.7215
  Normalized data Figure 5f: 100
  Raw data Figure 5c: 944.498 and 822.131 and 733.074
  Raw data Figure 5f: 651.243 and 597.631 and 579.613
  Raw data of Independent repeat of CBPVene-v4 vs CBPVene-v4-LD3v1: 146.952 and 139.539 and 151.905
CBPVene-v4, Venetoclax 3160 nM
  Normalized data Figure 5c: 79.357 and 89.4953 and 82.0208
  Normalized data Figure 5f: 65.0047 and 75.3611 and 76.07
  Raw data Figure 5c: 754.403 and 741.34 and 670.156
  Raw data Figure 5f: 423.338 and 450.382 and 440.912
  Raw data of Independent repeat of CBPVene-v4 vs CBPVene-v4-LD3v1: 80.4284 and 77.0562 and 76.9119
[1]
  Normalized data Figure 5c: 37.7692 and 41.8946 and 33.9505
  Normalized data Figure 5f: 42.6019 and 46.7992 and 47.9312
  Raw data Figure 5c: 359.051 and 347.036 and 277.394
  Raw data Figure 5f: 277.442 and 279.687 and 277.816
  Raw data of Independent repeat of CBPVene-v4 vs CBPVene-v4-LD3v1: 30.3195 and 25.7432 and 26.899
[2]
  Normalized data Figure 5f: 10.7266 and 9.876 and 10.4991
  Raw data Figure 5f: 31.1918 and 36.3952 and 31.7379
[3]
  Normalized data Figure 5f: 10.8133 and 9.981 and 9.46
  Raw data Figure 5f: 31.4437 and 36.7806 and 28.5959
[4]
  Normalized data Figure 5f: 12.5098 and 10.2311 and 12.3238
  Raw data Figure 5f: 36.377 and 37.7021 and 37.2539
[5]
  Normalized data Figure 5f: 23.9871 and 21.8452 and 18.9874
  Raw data Figure 5f: 69.7518 and 80.5008 and 57.3972
[6]
  Normalized data Figure 5f: 72.8611 and 61.7154 and 72.9933
  Raw data Figure 5f: 211.871 and 227.425 and 220.652
[7]
  Normalized data Figure 5f: 100
  Raw data Figure 5f: 290.788 and 368.506 and 302.291
[8]
  Normalized data Figure 5f: 80.3655 and 74.9934 and 84.5393
  Raw data Figure 5f: 233.694 and 276.355 and 255.555
[9]
  Normalized data Figure 5f: 44.2102 and 40.566 and 46.2986
  Raw data Figure 5f: 128.558 and 149.488 and 139.957
[10]
  Normalized data Figure 5f: 14.2742 and 12.3963 and 14.8986
  Raw data Figure 5f: 41.5078 and 45.6809 and 45.0373
CBPVene-v4-LD3v1, Venetoclax 0.01 nM
  Raw data of Independent repeat of CBPVene-v4 vs CBPVene-v4-LD3v1: 13.3313 and 13.792 and 13.1319
[11]
  Normalized data Figure 5c: 19.7956 and 13.458 and 12.3801
  Raw data Figure 5c: 19.1053 and 16.682 and 17.9097
  Raw data of Independent repeat of CBPVene-v4 vs CBPVene-v4-LD3v1: 12.6379 and 12.8648 and 13.2123
[12]
  Normalized data Figure 5c: 17.4061 and 14.8696 and 11.4945
  Raw data Figure 5c: 16.7992 and 18.4317 and 16.6285
  Raw data of Independent repeat of CBPVene-v4 vs CBPVene-v4-LD3v1: 10.9947 and 13.5809 and 10.4154
CBPVene-v4-LD3v1, Venetoclax 10 nM
  Normalized data Figure 5c: 20.3471 and 18.6998 and 14.8112
